# Assays:
# rat = assay: 14-day sub-chronic toxicity in rat with nasal olanzapine delivery; format: in vivo; conditions: nasal delivery (data not shown)
# [1] = Phase 1 clinical trial, plasma olanzapine pharmacokinetics; conditions: human, in vivo
# Procedure: Randomization for Periods 1 and 2 was performed for each subject on Day 1.
# In Period 1, subjects were assigned to 1 of 3 cohorts (n=12 per cohort). […] Dose administration occurred at Visit 2 on Day 1 (relative to each cohort). Each cohort was scheduled to allow time for Period 2 safety assessments to occur prior to dose escalation in the next cohort period 2 dosing. Subjects remained confined to the study site for 72 hours after dosing. Subjects returned to the study site on Days 5 and 6 (Visits 3 and 4) for follow-up assessments.
# In Period 2, subjects returned to the study site after a washout period of at least 14 days. Subjects from each Period 1 cohort received a single dose of INP105 (5, 10 or 15 mg) or placebo in a 9:3 ratio, as outlined in Table 11. Dose administration occurred on Day 15. (Dosing was permitted to occur later than the calendar Day 15 as required for scheduling (up to 2 days) but not before Day 15.) Ascending-dose levels of INP105 (5, 10 or 15 mg) were administered to ascending cohort numbers as follows:
# The following pharmacokinetic parameters were determined: Cmax, Tmax, Tlast, AUClast, and t1/2 where possible.
# [2] = oral olanzapine tablets or disintegrating tablets, previously reported; cited from earlier work
compound,measurement,setting,value
Cc1cc2c(s1)Nc1ccccc1N=C2N1CCN(C)CC1 [olanzapine],macroscopic or microscopic findings,rat,No macroscopic or microscopic findings
same,Tmax,"[1]; im, 5 mg",19.8 to 21.6 min
same,Tmax,[1]; inhaled or intranasal,9.6 to 10.2 min
same,Cmax,"[1]; inhaled or intranasal, 15 mg",≥ 30 ng/mL
same,Tmax,"[1]; po, 10 mg",120 min
same,time to peak plasma concentration (Tmax),[2],5 to 8 h

# — patent US11278492B2 (priority 2018, dated 2022)
